This is an account of results in paper PMC12841663, “Antiprotozoal Potential of Cultivated Geranium macrorrhizum Against Giardia duodenalis, Trichomonas gallinae and Leishmania infantum” (International Journal of Molecular Sciences, 2026).

Structures are written as SMILES. Converted amounts (≈) assume the structure as drawn.

The subject of series [1] is intracellular amastigotes of L. infantum. Kind of series: Infection index of DH82 macrophages infected with L. infantum (intracellular amastigotes). Particulars: 1 µg/mL, 48 h. It is filed as cell-based, Leishmania infantum.
The test system of series [2] is L. infantum promastigotes. Further details: method as in doi:10.1080/10412905.2013.820669. The conditions noted are these: cited from earlier work.
The subject of the next series is Vero cells. More on the design: method as in PMID 36672727. Particulars: cited from earlier work.
The subject of series [3] is L. infantum promastigotes. Kind of series: Morphological evaluation by light microscopy (Diff-Quik), L. infantum. The conditions noted are these: amphotericin B at 1 µg/mL. The format is cell-based, Leishmania infantum. The method, then:
L. infantum, T. gallinae and G. duodenalis were studied at 0, and 48 h after treatment with germacrone (100 µg/mL), and controls (DMSO 1%, metronidazole at 10 µg/mL for T. gallinae and G. duodenalis and amphotericin B at 1 µg/mL for L. infantum).
For L. infantum and T. gallinae, cultures in the exponential growth phase (10^7 promastigotes/mL and 5 × 10^5 trophozoites/mL, respectively) were treated in 96-well microplates. At each time point, quadruplicates were assigned per condition: growth control, germacrone, and the corresponding positive control (metronidazole or amphotericin B). For microscopy, quadruplicate wells corresponding to the same condition/time point were pooled prior to centrifugation to obtain sufficient biomass and a representative pellet for smear preparation. Pooled samples per condition/time point were centrifuged, resuspended in FBS and spread onto microscope slides. Once dried, samples were fixed and stained with Diff-Quik (Medion Diagnostic AG, Düdingen, Switzerland) following the manufacturer’s instructions. Additionally, three wells per condition (triplicates) were used for the MTT assay, with absorbance measured by spectrophotometry after 48 h.
Morphological changes were analyzed using light microscopy. Experiments were performed as independent biological replicates on different plates, and one Diff-Quik stained smear was obtained per condition and time point per biological replicate. For morphometric analysis, a total of 30 trophozoites per condition and time point were measured across the independent biological replicates and were selected by consecutive sampling during a predefined serpentine (zig-zag) scan across the preparation. Up to two eligible trophozoites per field (intact, well-focused and non-overlapping) were measured in sequential fields until n = 30 was reached, avoiding subjective selection of “representative” cells. Overlapping, partially visible, out-of-focus, edge-of-field, or debris-obscured trophozoites were excluded a priori. Trophozoites were photographed using a researcher’s mobile phone mounted to the microscope ocular. Calibration was performed at the same magnification using a stage micrometre and applied in ImageJ v. 1.54d. One Diff-Quik stained smear was obtained per condition/time point per biological replicate Cell length, cell width, cell surface, nuclear length, nuclear width, axoneme (only Giardia), and length of axostyle (only T. gallinae) were measured with ImageJ software, and the data were recorded in an Excel database for statistical analysis.
The Shapiro–Wilk test was used to assess the normality of the morphological variables. When data followed a normal distribution, Student’s t-test was applied; otherwise, non-parametric tests, such as the Mann–Whitney U test, was used. Values of p < 0.05 were considered significant. For the morphological analysis, the mean, standard deviation, median, and interquartile range were calculated using SPSS version 20 (IBM Corp., Armonk, NY, USA).

Series [4] deals with G. duodenalis trophozoites. Briefly: Anti-Giardia activity assay (MTT viability). The format is cell-based. Particulars: pure compounds. The method, then:
Anti-Giardia (AG) activity assays were conducted on G. duodenalis trophozoites from the ATCC® 30957 strain (assemblage A), using flat-bottom microwell plates in quadruplicate. […] Incubation was carried out for 24 h at 37 °C. EOs and pure compounds were solved in DMSO (Sigma, Madrid, Spain) (<1% final concentration). […] Trophozoites/promastigotes viability was assessed using the modified MTT colorimetric assay, as described previously in the literature, with results further validated by microscopic examination. The plate was analyzed in a spectrophotometer at a wavelength of 570 nm. The percentage of antiparasitic activity was calculated as growth inhibition, using the following formula: % AT = 100 - [(Ap - Ab) ÷ (Ac - Ab)] × 100, where Ap is the absorbance of the tested product, Ab the absorbance of the blank and Ac the absorbance of the control wells (culture without treatment). […] Metronidazole (Acros Organics, Madrid, Spain) served as a reference compound for anti-Giardia activity and Anti-Trichomonas activity and amphotericin B for anti-Leishmania activity. Data was analyzed using STATGRAPHICS Centurion XIX ([…].com) (Statgraphics Technologies, Inc., The Plains, VA, USA). The mammalian cells and trophozoites viability were tested with each compound in a dose-response experiment to calculate their relative potency (CC50 or IC50 value, respectively).

Series [5] can be described thus: Cytotoxicity of pure compounds on Vero cells (MTT). It is filed as cell-based. Particulars: African green monkey, Vero cells (kidney cells); 48 h exposure; 50% Vero cell mortality; MTT; read-out: Vero Cells CC50. The method, then:
African green monkey kidney cells (Vero cells) were maintained in Dulbecco’s modified Eagle’s minimal essential medium (DMEM) (Thermo Fisher Scientific, Waltham, MA, USA) supplemented with 10% FBS and 1% Pen-Strep at 37 °C under a humidified atmosphere of 5% CO2/95% air.
Cells seeded in 96-well flat-bottom microplates with 100 μL medium per well (initial densities 10^4 cells per well) were exposed for 48 h to serial dilutions (100, 75, 50, 25, 10 and 1 µg/mL) of the tested compounds in DMSO (<1% final concentration). Cell viability was analyzed by the MTT colorimetric assay method, and the purple-colored formazan precipitate was dissolved with 100 μL of DMSO [23].
(§1) Data was analyzed using STATGRAPHICS Centurion XIX (https://www.statgraphics.com) (Statgraphics Technologies, Inc., The Plains, VA, USA). The mammalian cells and trophozoites viability were tested with each compound in a dose–response experiment to calculate their relative potency (CC50 or IC50 value, respectively). IC50 (μg/mL) expresses the dose of EOs, extracts or pure compounds needed to produce 50% mortality of trophozoites, while CC50 (μg/mL) expresses the dose of compounds necessary to produce 50% mortality of Vero cells.

Series [6] concerns L. infantum promastigotes. Kind of series: Anti-Leishmania activity assay on promastigotes (MTT viability). It is filed as cell-based. Particulars: pure compounds. On the procedure: Anti-Leishmania (AL) activity was assessed on L. infantum promastigotes (MCAN/ES/98/LLM-722), kindly provided by Dr. J.M. Requena from CBM-CSIC, as well as on L. infantum (M/CAN/ES/96/BCN150 zymodeme MON-1), strain isolated from a dog with active visceral leishmaniasis. L. infantum promastigotes (MCAN/ES/98/LLM-722) were cultured in RPMI medium supplemented with 15% FBS and 10 μg/mL of hemin (Acros Organics, Madrid, Spain), grown at 26 °C. Promastigotes in logarithmic growth were seeded in 96-well flat-bottom plates at a volume of 100 μL of culture per well and incubated for 48 h. Promastigotes for macrophage infection (M/CAN/ES/96/BCN150 zymodeme MON-1) were maintained at 26 °C in Schneider’s insect medium (Lonza, Basel, Switzerland) supplemented with 10% FBS and 100 U/mL penicillin and 100 μg/mL streptomycin (Lonza, Basel, Switzerland) (Pen-Strep). Promastigotes in the stationary phase of growth (5–6 days) were washed twice in phosphate-buffered saline at 2700× g for 10 min at 22 °C and employed for macrophage infection.
EOs and pure compounds were solved in DMSO (Sigma, Madrid, Spain) (<1% final concentration). […] Trophozoites/promastigotes viability was assessed using the modified MTT colorimetric assay, as described previously in the literature, with results further validated by microscopic examination. The plate was analyzed in a spectrophotometer at a wavelength of 570 nm. The percentage of antiparasitic activity was calculated as growth inhibition, using the following formula: % AT = 100 − [(Ap − Ab) ÷ (Ac − Ab)] × 100, where Ap is the absorbance of the tested product, Ab the absorbance of the blank and Ac the absorbance of the control wells (culture without treatment).
Pure compounds were tested using the same method, although at concentrations of 100, 75, 50, 25, 10, and 1 μg/mL. Metronidazole (Acros Organics, Madrid, Spain) served as a reference compound for anti-Giardia activity and Anti-Trichomonas activity and amphotericin B for anti-Leishmania activity.
as §1

The test system of a further series is T. gallinae trophozoites. Kind of series: Anti-Trichomonas activity assay (MTT viability). The format is cell-based. Particulars: pure compounds. On the procedure:
The anti-Trichomonas (AT) activity assay utilized T. gallinae trophozoites from an isolate obtained from a wood pigeon by Dr. […] EOs and pure compounds were solved in DMSO (Sigma, Madrid, Spain) (<1% final concentration). […] Trophozoites/promastigotes viability was assessed using the modified MTT colorimetric assay, as described previously in the literature, with results further validated by microscopic examination. The plate was analyzed in a spectrophotometer at a wavelength of 570 nm. The percentage of antiparasitic activity was calculated as growth inhibition, using the following formula: % AT = 100 - [(Ap - Ab) ÷ (Ac - Ab)] × 100, where Ap is the absorbance of the tested product, Ab the absorbance of the blank and Ac the absorbance of the control wells (culture without treatment). […] Metronidazole (Acros Organics, Madrid, Spain) served as a reference compound for anti-Giardia activity and Anti-Trichomonas activity and amphotericin B for anti-Leishmania activity. Data was analyzed using STATGRAPHICS Centurion XIX ([…].com) (Statgraphics Technologies, Inc., The Plains, VA, USA). The mammalian cells and trophozoites viability were tested with each compound in a dose-response experiment to calculate their relative potency (CC50 or IC50 value, respectively).

The term IC50 denotes the concentration that gives 50% inhibition. Broadly, the CC50 is the concentration at which the toxic effect on the cells reaches its halfway point.

As to `C[C@@H]1[C@H](O)[C@@H](C)/C=C/C=C/C=C/C=C/C=C/C=C/C=C/[C@H](O[C@@H]2O[C@H](C)[C@@H](O)[C@H](N)[C@@H]2O)C[C@@H]2O[C@](O)(C[C@@H](O)C[C@@H](O)[C@H](O)CC[C@@H](O)C[C@@H](O)CC(=O)O[C@H]1C)C[C@H](O)[C@H]2C(=O)O` [AmB, amphotericin B], the “Infection Index” value in series [1] (% infected x amastigotes per infected cell) came out at 8.9 ± 0.0. Further, in series [1] (mean ± SD), the “% Infected Cells” value stood at 6.4 ± 3.7 % and the “nº Amastigotes/Infected Cell” value was 1.4 ± 0.7. Also, the “L. infantum (pm) IC50” value in series [2] was 0.01 [22] µg/mL. The “Vero Cells CC50” value in the series with Vero cells was 7.11 [21] µg/mL. For the same molecule, the “morphological alterations of promastigotes” value in series [3] is “strong morphological alterations”.
As to `C=C[C@]1(C)CC(=O)C(=C(C)C)C[C@H]1C(=C)C` [Compound 1, β-elemenone], the IC50 (in series [4]; in series [6]; with T. gallinae trophozoites) was greater than 100 µg/mL each time. Besides, the 50% cytotoxic concentration (CC50) at 48 h in series [5] is greater than 100 µg/mL.
With `CC(C)=C1CC(=O)[C@]2(C)CC[C@H]2[C@@H](C)CC1=O` [Compound 3], the IC50 is greater than 100 µg/mL in series [4], 35.5 µg/mL (≈ 151 µM) in series [6] and greater than 100 µg/mL with T. gallinae trophozoites. The 50% cytotoxic concentration (CC50) at 48 h in series [5] was greater than 100 µg/mL.
Consider `C/C1=C\CC2(OC2(C)C)C(=O)C/C(C)=C/CC1` (stereo not drawn) [Compound 4], for which the concentration for half-maximal inhibition (IC50) is greater than 100 µg/mL in series [4], 88.8 µg/mL (≈ 379 µM) in series [6] and 51.6 µg/mL (≈ 220 µM) in the series on T. gallinae trophozoites. Also, the CC50 at 48 h in series [5] was greater than 100 µg/mL.
